Measured values: paper PMC9130746, “In Vitro Activity of Peptide Antibiotics in Combination With Other Antimicrobials on Extensively Drug-Resistant Acinetobacter baumannii in the Planktonic and Biofilm Cell” (Frontiers in Pharmacology, 2022)
≈ marks a conversion by molar mass, not a printed value. Where two headings read alike, the source gives them in different places. Bridge positions count the residues as written; N and C are the ends. Square brackets hold non-standard residues; d marks the D form. Peptide text beside a SMILES is read from it. * marks the point of attachment. X1 = CC[C@H](C)CCCCC(=O)*; Dab = NCC[C@H](N)C(=O)O

Assays:
[1] = tested on: extensively drug-resistant A. baumannii clinical isolates (planktonic cell); assay: microbe, parasite or virus in culture; type: cell-based, Acinetobacter baumannii; details: planktonic, broth microdilution, CAMHB, 37°C 16–20 h, OD600
From the text: (§1) Nine XDRAB strains were isolated from clinical specimens such as the septum, urine, or respiratory lavage fluid of patients from the respiratory intensive care unit, intensive care unit, the cardiothoracic surgery department, and the neurology department at the First Affiliated Hospital of Chengdu Medical College during the period from 2018 to 2020 (Chengdu, Sichuan, China). In addition, A. baumannii ATCC 19606, Staphylococcus aureus ATCC 29213, and Escherichia coli ATCC 25922 were used as quality control strains in antimicrobial susceptibility testing (AST) and obtained from the American Type Culture Collection (ATCC, Manassas, VA, United States).
The minimum inhibitory concentrations (MICs) were determined by the broth microdilution method for the antibacterial agents and peptide antibiotics for A. baumannii based on the guidelines provided by the Clinical and Laboratory Standards Institute (CLSI) ([Humphries et al., 2021]). Briefly, bacterial cells were inoculated in Luria–Bertani agar medium at 37°C for 16–20 h, and then resuspended in saline (0.9% sodium chloride) to adjust the bacterial content to reach the 0.5 McFarland turbidity standard, followed by a 20-fold dilution. Antimicrobial solutions were prepared according to the CLSI ([Humphries et al., 2021]). Finally, 180 μl CAMHB, 10 µl corresponding antimicrobials, and 10 µl bacterial resuspension were added into 96-well plate (NEST TC, 701001, www.cell-nest.com). The value of OD600 was measured after incubating at 37°C for 16–20 h.

[2] = tested on: extensively drug-resistant A. baumannii clinical isolates (biofilm cell); type: cell-based, Acinetobacter baumannii; details: 24 h biofilm in TSB, then MH broth with drug 16–20 h 37°C, OD600
From the text: as §1
The minimum biofilm inhibitory concentrations (MBICs) were detected using a previous study protocol ([Kart et al., 2021]) for the antibacterial agents and peptide antibiotics for A. baumannii in the biofilm cell. First, bacterial cells were inoculated in Luria–Bertani agar medium at 37°C for 16–20 h. Next, the bacterial monoclones were resuspended in saline (0.9% sodium chloride) to adjust the bacterial content to reach the 0.5 McFarland turbidity standard. Then, 190 µl TSB and 10 µl bacterial resuspension were mixed in a 96-well plate. After incubating at 37°C for 24 h, the medium was aspirated, and 200 µl PBS was added to wash three times. Finally, 190 μl MH broth medium and 10 µl corresponding antibiotics were added into 96-well plate (NEST TC, 701001, www.cell-nest.com). The optical density was measured at OD600 after incubating for 16–20 h at 37°C.

[3] = Acinetobacter baumannii, isolate AB1, read-out: MIC
[4] = Acinetobacter baumannii, isolate AB2, read-out: MIC
[5] = Acinetobacter baumannii, isolate AB3, read-out: MIC
[6] = Acinetobacter baumannii, isolate AB4, read-out: MIC
[7] = Acinetobacter baumannii, isolate AB5, read-out: MIC
[8] = Acinetobacter baumannii, isolate AB6, read-out: MIC
[9] = Acinetobacter baumannii, isolate AB7, read-out: MIC
[10] = Acinetobacter baumannii, isolate AB8, read-out: MIC
[11] = Acinetobacter baumannii, isolate AB9, read-out: MIC

SMILES	MIC [1, 3]	MIC [1, 4]	MIC [1, 5]	MIC [1, 6]	MIC [1, 7]	MIC [1, 8]	MIC [1, 9]	MIC [1, 10]	MIC [1, 11]	also measured
C[C@@H](O)[C@H]1C(=O)N2C(C(=O)O)=C(SCCN=CN)C[C@H]12 [Imipenem, imipenem]	64 µg/mL (≈ 214 µM)	64 µg/mL (≈ 214 µM)	64 µg/mL (≈ 214 µM)	64 µg/mL (≈ 214 µM)	64 µg/mL (≈ 214 µM)	64 µg/mL (≈ 214 µM)	64 µg/mL (≈ 214 µM)	64 µg/mL (≈ 214 µM)	64 µg/mL (≈ 214 µM)	–
CC[C@H](C)CCCCC(=O)N[C@@H](CCN)C(=O)N[C@H](C(=O)N[C@@H](CCN)C(=O)N[C@H]1CCNC(=O)[C@H]([C@@H](C)O)NC(=O)[C@H](CCN)NC(=O)[C@H](CCN)NC(=O)[C@H](CC(C)C)NC(=O)[C@@H](Cc2ccccc2)NC(=O)[C@H](CCN)NC1=O)[C@@H](C)O [Polymyxin B, polymyxin B] (X1-[Dab]T[Dab][Dab][Dab][dF]L[Dab][Dab]T; lactam 4-C (inferred); N-terminus assumed)	–	–	–	–	–	–	–	–	–	MIC ([1]; isolate AB1): 2 µg/mL (≈ 1.66 µM); MIC ([1]; isolate AB2): 1 µg/mL (≈ 0.831 µM); MIC ([1]; isolate AB3): 1 µg/mL (≈ 0.831 µM); MIC ([1]; isolate AB4): 2 µg/mL (≈ 1.66 µM); MIC ([1]; isolate AB5): 2 µg/mL (≈ 1.66 µM); MIC ([1]; isolate AB6): 1 µg/mL (≈ 0.831 µM); MIC ([1]; isolate AB7): 2 µg/mL (≈ 1.66 µM); MIC ([1]; isolate AB8): 2 µg/mL (≈ 1.66 µM); MIC ([1]; isolate AB9): 2 µg/mL (≈ 1.66 µM); MBIC ([2]; isolate AB1): 16 µg/mL; MBIC ([2]; isolate AB2): 16 µg/mL; MBIC ([2]; isolate AB3): 8 µg/mL; MBIC ([2]; isolate AB4): 8 µg/mL; MBIC ([2]; isolate AB5): 16 µg/mL; MBIC ([2]; isolate AB6): 16 µg/mL; MBIC ([2]; isolate AB7): 8 µg/mL; MBIC ([2]; isolate AB8): 8 µg/mL; MBIC ([2]; isolate AB9): 8 µg/mL
CN(C)[C@@H]1C(O)=C(C(N)=O)C(=O)[C@@]2(O)C(O)=C3C(=O)c4c(O)cccc4[C@@](C)(O)[C@H]3C[C@@H]12 [Tetracycline, tetracycline]	> 1020 µg/mL	> 1020 µg/mL	> 1020 µg/mL	> 1020 µg/mL	> 1020 µg/mL	> 1020 µg/mL	> 1020 µg/mL	> 1020 µg/mL	> 1020 µg/mL	–

More lines, main results first:

MIC [1, 3]	MIC [1, 4]	MIC [1, 5]	MIC [1, 6]	MIC [1, 7]	MIC [1, 8]	MIC [1, 9]	MIC [1, 10]	MIC [1, 11]	SMILES	also measured
16 µg/mL (≈ 44.3 µM)	16 µg/mL (≈ 44.3 µM)	16 µg/mL (≈ 44.3 µM)	8 µg/mL (≈ 22.1 µM)	8 µg/mL (≈ 22.1 µM)	16 µg/mL (≈ 44.3 µM)	8 µg/mL (≈ 22.1 µM)	16 µg/mL (≈ 44.3 µM)	16 µg/mL (≈ 44.3 µM)	C[C@H]1COc2c(N3CCN(C)CC3)c(F)cc3c(=O)c(C(=O)O)cn1c23 [Levofloxacin, levofloxacin]	–
32 µg/mL (≈ 83.4 µM)	32 µg/mL (≈ 83.4 µM)	32 µg/mL (≈ 83.4 µM)	32 µg/mL (≈ 83.4 µM)	32 µg/mL (≈ 83.4 µM)	32 µg/mL (≈ 83.4 µM)	32 µg/mL (≈ 83.4 µM)	32 µg/mL (≈ 83.4 µM)	32 µg/mL (≈ 83.4 µM)	C[C@@H](O)[C@H]1C(=O)N2C(C(=O)O)=C(S[C@@H]3CN[C@H](C(=O)N(C)C)C3)[C@H](C)[C@H]12 [Meropenem, meropenem]	–
16 µg/mL (≈ 35 µM)	16 µg/mL (≈ 35 µM)	16 µg/mL (≈ 35 µM)	16 µg/mL (≈ 35 µM)	16 µg/mL (≈ 35 µM)	16 µg/mL (≈ 35 µM)	16 µg/mL (≈ 35 µM)	16 µg/mL (≈ 35 µM)	16 µg/mL (≈ 35 µM)	CN(C)c1ccc(O)c2c1C[C@H]1C[C@H]3[C@H](N(C)C)C(O)=C(C(N)=O)C(=O)[C@@]3(O)C(O)=C1C2=O [Minocycline, minocycline]	–
> 1020 µg/mL	> 1020 µg/mL	> 1020 µg/mL	> 1020 µg/mL	> 1020 µg/mL	> 1020 µg/mL	> 1020 µg/mL	> 1020 µg/mL	> 1020 µg/mL	CCN1CCN(C(=O)N[C@@H](C(=O)N[C@@H]2C(=O)N3[C@@H]2SC(C)(C)[C@@H]3C(=O)O)c2ccccc2)C(=O)C1=O [Piperacillin, piperacillin]	–
